Data: paper PMC10534582, “A Pharmacokinetic Study of Sixteen Major Bioactive Components of Jinshui-Huanxian Granules in Pulmonary Fibrosis Model and Control Rats Using Orbitrap Fusion Mass Spectrometry” (Molecules, 2023)
Read-outs that look alike come from different tables or passages of the source.

How the values were obtained:
[1] = Pharmacokinetics of JHG components in pulmonary fibrosis (PF) model rats after intragastric administration of JHGs (plasma, Orbitrap Fusion MS); assay type: in vivo, Sprague Dawley (SD) rats; settings: for Cmax, PF model group compared with the control group: medium dose selected for comparison; for pharmacokinetic process (versus dosage): low, medium, high doses of JHGs
Method: (§1) Healthy male Sprague Dawley (SD) rats of SPF grade (240 ± 20 g) were purchased from Sipeifu (Beijing, China) Biotechnology Co., Ltd. (Beijing, China), Certificate of Conformity No.: SCYK (Beijing, China) 2019-0015, Animal Quality Certificate No.: 110324220102348616. They were housed in the Animal Center of Henan University of Traditional Chinese Medicine, which passed the ethical audit, ethics number: DWLL202208003, breeding Co. 24 °C, relative humidity 50 ± 2%. The animals fasted for 12 h before the experiment and drank water freely. All feeding and experimental studies on experimental animals were in accordance with the regulations on the Management of Experimental Animals in Henan Province.
The PF model in rats was replicated by reference to the conclusion tracheal intubation method in the literature. After the rats were anesthetized, bleomycin (BLM) (5 mg/kg) was used as an induction agent and followed the tracheal intubation method. BLM solution was aspirated with a 1 mL syringe and injected into the indwelling syringe. A total of 0.3 mL of air was rapidly pushed into the syringe, the rats were immediately stroked upright so that the BLM solution was evenly distributed in both lungs. BLM was given on day 0 for modeling, then gavage was taken after day 28, with fasting without water for 12 h before sampling. The histopathological examination was performed to verify the construction of the PF model. The rats were anesthetized by the abdominal cavity, then the lung tissues were violently shocked by opening the chest, and the right lower lobe of the lung was taken and fixed in 4% formaldehyde solution, then dehydrated by sucrose gradient, paraffin-embedded, and sectioned. H&E and Masson staining were performed to observe the degree of alveolitis of lung tissue and the degree of pulmonary fibrosis, respectively. The inflammation and fibrosis of lung tissues was observed under the light microscope.
(§2) Twenty-four healthy male SD rats or PF model rats, weighing 240 ± 20 g, fasted for 12 h before the experiment and drank water freely. Both kinds of rats were randomly divided into four groups. Blank group: equal dose of water by intragastric, low dose; administration group: rats were given the equivalent human dose of JHGs by intragastric, i.e., 10.8 g of raw drug/kg/d (5.70 g/kg/d); medium-dose administration group: 2 times the human equivalent dose of JHGs by intragastric, i.e., 21.6 g of raw drug/kg/d (11.41 g/kg/d); high-dose administration group: 4 times the human equivalent dose of JHG, i.e., 43.2 g of raw drug/kg/d (22.81 g/kg/d). Blood was collected from the tail vein before and 0.083, 0.25, 0.5, 0.75, 1, 1.5, 2, 3, 4, 6, 8, 12, 18, and 24 h after dosing, respectively. A total of 0.5 mL was placed in a heparin sodium centrifuge tube. Whole blood was left for 30 min and then centrifuged in a low-temperature freezing centrifuge (4 °C, 3000 r/min) for 15 min. The upper layer of plasma was collected and stored in a refrigerator at −80 °C.
(§3) We added 50 μL of internal standard solution and 800 μL of methanol, shook for 15 min, then centrifuged at 12,000 r/min for 10 min, took the supernatant, dried in a centrifuge concentrator, added 50 μL of the initial mobile phase to the residue, dissolved, centrifuged, then separated the upper layer of the solution used as the test solution. A total of 5 μL test solution was taken into the sample for analysis. For each compound with a certain dosage, the same procedure is repeated six times in parallel. The concentration in plasma was calculated by the internal standard method.
Accucore C18 (100 mm × 2.1 mm, 2.6 μm) column at 25 °C, the mobile phase was methanol (A)-0.1% formic acid aqueous solution (B). The gradient elution program was 0–4 min (65% B-40% B), 4–5 min (40% B-40% B), 5–6 min (40% B-28% B), and 6–7 min (28% B-19% B), 7–7.5 min (19% B-10% B), 7.5–11 min (10% B-0% B), the flow rate was 0.2 mL/min, and the injection volume was 5 μL. […]

[2] = Pharmacokinetics of JHG components in control rats after intragastric administration of JHGs (plasma, Orbitrap Fusion MS); assay type: in vivo, Sprague Dawley (SD) rats; settings: for pharmacokinetic process (Cmax and AUCs versus dosage): low, medium, high doses of JHGs; for Tmax / AUC(0-inf) / AUC(0-t) / half-life / MRT last / MRT inf / Cmax: male, rat, plasma, po; for MRT last: read-out: MRT(0-t); for MRT inf: read-out: MRT(0-∞); for Cmax: intragastric JHGs
Method: as §1, §2, §3
Accucore C18 (100 mm × 2.1 mm, 2.6 μm) column at 25 °C, the mobile phase was methanol (A)-0.1% formic acid aqueous solution (B). The gradient elution program was 0–4 min (65% B-40% B), 4–5 min (40% B-40% B), 5–6 min (40% B-28% B), and 6–7 min (28% B-19% B), 7–7.5 min (19% B-10% B), 7.5–11 min (10% B-0% B), the flow rate was 0.2 mL/min, and the injection volume was 5 μL.
The ion source was an electrospray ionization source (ESI). Nitrogen acted as a carrier gas. The sheath gas pressure was 35 Arb. The auxiliary gas pressure was 7 Arb. The spray voltage was 3.50 kv(+), 2.50 kv(-). The ion transport tube temperature was regulated at 300 °C. Gasification temperature was 275 °C. The resolution was 50,000. The scanning mode was set as SIM mode. The optimized parameters obtained are in Table 5.
Under the established Orbitrap Fusion MS method, the pharmacokinetics of JHG in rats were studied to investigate the dynamic changes of the active components in rats. The pharmacokinetic parameters of each component in each dosing group were calculated by […] model analysis using Kinetica 5.1 (Innaphase, Waltham, MA, USA) pharmacokinetic analysis software. The pharmacotemporal curves were plotted by the plotting software. SPSS 19.0 (IBM, Armonk, NY, USA) was used to analyze all the parameters. Independent sample tests were performed after natural logarithmic transformation for AUC0–t, Cmax. The nonparametric Mann–Whitney test was applied for Tmax, t½, and MRT0–t. p < 0.05 was considered statistically significant.

[3] = Sprague-Dawley, after administration of JHGs, read-out: Tmax of all dosages
[4] = Sprague Dawley, 5.7 g/kg/day, JHGs low dose 5.70 g/kg/d
[5] = Sprague Dawley, 5.7 g/kg/day, JHGs low dose 5.70 g/kg/d, read-out: Tmax
[6] = Sprague Dawley, 5.7 g/kg/day, low dose 5.70 g/kg/d, n=6 (1st of 3 stacked values)
[7] = Sprague Dawley, 11.41 g/kg/day, JHGs medium dose 11.41 g/kg/d
[8] = Sprague Dawley, 11.41 g/kg/day, JHGs medium dose 11.41 g/kg/d, read-out: Tmax
[9] = Sprague Dawley, 11.41 g/kg/day, medium dose 11.41 g/kg/d, n=6 (2nd of 3 stacked values)
[10] = Sprague Dawley, 22.81 g/kg/day, JHGs high dose 22.81 g/kg/d
[11] = Sprague Dawley, 22.81 g/kg/day, JHGs high dose 22.81 g/kg/d, read-out: Tmax
[12] = Sprague Dawley, 22.81 g/kg/day, high dose 22.81 g/kg/d, n=6 (3rd of 3 stacked values)

## OC[C@H]1O[C@@H](O[C@@H]2OC=C[C@H]3[C@H](O)[C@@H]4O[C@]4(CO)[C@@H]23)[C@H](O)[C@@H](O)[C@@H]1O [Catalpol]
[1]; PF model vs control rats
  Cmax, PF model group compared with the control group: significantly decreased

## CC(C)=CCC[C@](C)(O[C@@H]1O[C@H](CO[C@@H]2O[C@H](CO)[C@@H](O)[C@H](O)[C@H]2O)[C@@H](O)[C@H](O)[C@H]1O)[C@H]1CC[C@]2(C)[C@@H]1[C@H](O)C[C@@H]1[C@@]3(C)CC[C@H](O[C@@H]4O[C@H](CO)[C@@H](O)[C@H](O)[C@H]4O[C@@H]4O[C@H](CO)[C@@H](O)[C@H](O)[C@H]4O)C(C)(C)[C@@H]3CC[C@]12C [Ginsenoside Rb1]
[1]; PF model rats
  pharmacokinetic process (versus dosage): linear pharmacokinetic process
[1]; PF model vs control rats
  Cmax, PF model group compared with the control group: significantly decreased
[1]; PF model vs control rats, p < 0.05
  AUCs, PF model group compared with the control group: significantly decreased
[2]
  pharmacokinetic process (Cmax and AUCs versus dosage): linear pharmacokinetic process

## CC(C)=CCC[C@](C)(O[C@@H]1O[C@H](CO[C@@H]2O[C@@H](CO)[C@H](O)[C@H]2O)[C@@H](O)[C@H](O)[C@H]1O)[C@H]1CC[C@]2(C)[C@@H]1[C@H](O)C[C@@H]1[C@@]3(C)CC[C@H](O[C@@H]4O[C@H](CO)[C@@H](O)[C@H](O)[C@H]4O[C@@H]4O[C@H](CO)[C@@H](O)[C@H](O)[C@H]4O)C(C)(C)[C@@H]3CC[C@]12C [Ginsenoside Rc]
[1]; PF model group, medium- and high-dose groups, compared to control group
  shape of plasma concentration–time curve: double peaks phenomenon
[2]
  pharmacokinetic process (Cmax and AUCs versus dosage): linear pharmacokinetic process
[2]; [3]
  Tmax: ≤ 2 h

## COc1ccc([C@@H]2CC(=O)c3c(O)cc(O[C@@H]4O[C@H](CO[C@@H]5O[C@@H](C)[C@H](O)[C@@H](O)[C@H]5O)[C@@H](O)[C@H](O)[C@H]4O)cc3O2)cc1O [Hesperidin]
[1]; PF model vs control rats
  Tmax, PF model group compared with the control group: decreased significantly

## COc1ccc(-c2oc3c(CC=C(C)C)c(O[C@@H]4O[C@H](CO)[C@@H](O)[C@H](O)[C@H]4O)cc(O)c3c(=O)c2O[C@@H]2O[C@@H](C)[C@H](O)[C@@H](O)[C@H]2O)cc1 [Icariin]
[1]; male, Sprague-Dawley, rat, plasma, po, PF model rats, after administration of JHGs, read-out: Tmax of all dosages
  Tmax: ≤ 2 h
[2]
  pharmacokinetic process (Cmax and AUCs versus dosage): linear pharmacokinetic process
[2]; [3]
  Tmax: ≤ 2 h

## C[C@@H]1O[C@@H](O[C@@H]2[C@@H](O)[C@H](OCCc3ccc(O)c(O)c3)O[C@H](COC(=O)/C=C/c3ccc(O)c(O)c3)[C@H]2O)[C@H](O)[C@H](O)[C@H]1O [Isoacteoside]
[1]; PF model rats
  pharmacokinetic process (versus dosage): linear pharmacokinetic process
[1]; PF model vs control rats
  Tmax, PF model group compared with the control group: increased about three times
[2]; JHGs high dose 22.81 g/kg/d
  Clearances: 1.12 ± 0.23 L/h/kg
  Vss: 9.42 ± 1.03 L
[2]; JHGs low dose 5.70 g/kg/d
  Clearances: 0.91 ± 0.18 L/h/kg
  Vss: 8.97 ± 2.22 L
[2]; JHGs medium dose 11.41 g/kg/d
  Clearances: 0.94 ± 0.1 L/h/kg
  Vss: 9.67 ± 3.39 L
[2]
  pharmacokinetic process (Cmax and AUCs versus dosage): linear pharmacokinetic process
[2]; [4]
  AUC(0-inf): 35.8 ± 5.5 ng·h/mL
  AUC(0-t): 32.2 ± 4.75 ng·h/mL
  half-life: 412 ± 28.8 min
  MRT last: 7.15 ± 0.14 h
  MRT inf: 9.81 ± 0.84 h
[2]; [5]
  Tmax: 1 h
[2]; [6]
  Cmax: 5.67 ± 1 ng/mL
[2]; [7]
  AUC(0-inf): 61.5 ± 8.17 ng·h/mL
  AUC(0-t): 54.9 ± 7.53 ng·h/mL
  half-life: 494 ± 272 min
  MRT last: 7.03 ± 0.29 h
  MRT inf: 10.4 ± 4.06 h
[2]; [8]
  Tmax: 2 h
[2]; [9]
  Cmax: 9.31 ± 1.05 ng/mL
[2]; [10]
  AUC(0-inf): 104 ± 22.4 ng·h/mL
  AUC(0-t): 96.4 ± 18.1 ng·h/mL
  half-life: 366 ± 46.2 min
  MRT last: 6.64 ± 0.33 h
  MRT inf: 8.58 ± 0.98 h
[2]; [11]
  Tmax: 3 h
[2]; [12]
  Cmax: 18.4 ± 1.98 ng/mL

## CC1CCC2N(C1)CC1C3CC4C(CC(O)C5CC(O)CCC54C)C3CCC1C2(C)O (centres unmarked) [Peimine]
[1]; PF model vs control rats
  MRT(0–t), PF model group compared with the control group: decreased
[2]; JHGs high dose 22.81 g/kg/d
  Clearances: 5.32 ± 0.73 L/h/kg
  Vss: 60.06 ± 7.12 L
[2]; JHGs low dose 5.70 g/kg/d
  Clearances: 1.86 ± 0.47 L/h/kg
  Vss: 131.39 ± 53.45 L
[2]; JHGs medium dose 11.41 g/kg/d
  Clearances: 4.53 ± 0.57 L/h/kg
  Vss: 61.2 ± 9.95 L
[2]
  pharmacokinetic process (Cmax and AUCs versus dosage): linear pharmacokinetic process
[2]; [4]
  AUC(0-inf): 24.7 ± 5.52 ng·h/mL
  AUC(0-t): 7.38 ± 2.13 ng·h/mL
  half-life: 3120 ± 1840 min
  MRT last: 11.1 ± 0.12 h
  MRT inf: 75.3 ± 41.8 h
[2]; [5]
  Tmax: 4 h
[2]; [6]
  Cmax: 0.57 ± 0.22 ng/mL
[2]; [7]
  AUC(0-inf): 17.6 ± 2.24 ng·h/mL
  AUC(0-t): 14.6 ± 1.9 ng·h/mL
  half-life: 481 ± 23.4 min
  MRT last: 8.8 ± 0.32 h
  MRT inf: 13.5 ± 0.58 h
[2]; [8]
  Tmax: 3.33 ± 0.58 h
[2]; [9]
  Cmax: 1.49 ± 0.26 ng/mL
[2]; [10]
  AUC(0-inf): 29.9 ± 4.92 ng·h/mL
  AUC(0-t): 26.6 ± 4.11 ng·h/mL
  half-life: 434 ± 37.2 min
  MRT last: 8.43 ± 0.11 h
  MRT inf: 11.3 ± 0.63 h
[2]; [11]
  Tmax: 2.67 ± 0.58 h
[2]; [12]
  Cmax: 2.53 ± 0.56 ng/mL
